Tests used:
Format in all cases: in vivo
[1] = test system: Johnsongrass (Sorghum halepense); assay: post-emergence herbicidal activity, johnsongrass; conditions: 1 Kg/Ha, about fourteen days, read-out: post-emergence herbicidal activity (% control) SORHA
Method: (§1) This example sets forth the methods of herbicidal testing conducted on the specific compounds set forth below. Specifically, the compounds referenced below were tested for pre- and post-emergence herbicidal activity using a variety of crops and weeds. The test plants include, but are not limited to, soybean (Glycine max -- var. Winchester), field corn (Zea mays var. Pioneer 3732), wheat (Triticum aestivum var. Lew), morningglory (Ipomea lacunosa or Ipomea hederacea), velvetleaf (Abutilon theophrasti), green foxtail (Setaria viridis), Johnsongrass (Sorghum halepense), blackgrass (Aloepecurus myosuroides), common chickweed (Stellaria media), and common cocklebur (Xanthium strumarium L.).
(§2) In the post-emergence test, seeds of the plant species named above were planted in flats containing the appropriate soil mixture where they were maintained to allow the seeds to germinate. When the plants in these flats reached the proper stage of growth, flats for the pre-emergence tests were planted in a like manner. The flats containing the post-emergence and pre-emergence test plant species were then sprayed with an appropriately concentrated water/acetone solution of test compound. Once treated the flats were maintained, along with untreated controls, for about fourteen days. All treated plants were then examined for phytotoxicity, which was expressed as percent control where 0 is no effect and 100 is complete control. Effective rates of application for the compounds of the present invention range from 0.001 to 3 kg/ha, more likely from […] to 1 Kg/ha.
(§3) Herbicidal activity data at selected application rates are in Tables 4 and 5. The test compounds are identified by numbers correspond to those in Table 1.
(§4) SOY is soybean, WHT is wheat, CRN is corn, ABUTH is velvetleaf, IPOSS is
(§5) morningglory, STEME is chickweed, XANPE is cocklebur, ALOMY is blackgrass,
(§6) Rate of application of test compound is 1 Kg/Ha. The definitions as shown under Table 4 apply to Table 5.

[2] = test system: velvetleaf (Abutilon theophrasti); assay: post-emergence herbicidal activity, velvetleaf; conditions: 1 Kg/Ha, about fourteen days, read-out: post-emergence herbicidal activity (% control) ABUTH
Method: as §1, §2, §3, §4, §5, §6

[3] = test system: morningglory (Ipomea lacunosa or Ipomea hederacea); assay: pre-emergence herbicidal activity, morningglory; conditions: Ipomoea, 1 kg/Ha, about fourteen days, read-out: pre-emergence herbicidal activity (% control) IPOSS
Method: as §1, §2, §3
(§7) Rate of application of test compound is 1 kg/Ha
as §4
(§8) morningglory, STEME is chickweed, XANPE is cocklebur, ALOMY is blackgrass, […]

[4] = test system: morningglory (Ipomea lacunosa or Ipomea hederacea); assay: post-emergence herbicidal activity, morningglory; conditions: Ipomoea, 1 Kg/Ha, about fourteen days, read-out: post-emergence herbicidal activity (% control) IPOSS
Method: as §1, §2, §3, §4, §5, §6

[5] = test system: common chickweed (Stellaria media); assay: post-emergence herbicidal activity, chickweed; conditions: 1 Kg/Ha, about fourteen days, read-out: post-emergence herbicidal activity (% control) STEME
Method: as §1, §2, §3, §4, §5, §6

[6] = test system: blackgrass (Aloepecurus myosuroides); assay: pre-emergence herbicidal activity, blackgrass; conditions: Alopecurus myosuroides, 1 kg/Ha, about fourteen days, read-out: pre-emergence herbicidal activity (% control) ALOMY
Method: as §1, §2, §3, §7, §4, §8

[7] = test system: field corn (Zea mays var. Pioneer 3732); assay: post-emergence herbicidal activity, corn; conditions: 1 Kg/Ha, about fourteen days, read-out: post-emergence herbicidal activity (% control) CRN
Method: as §1, §2, §3, §4, §5, §6

[8] = test system: green foxtail (Setaria viridis); assay: pre-emergence herbicidal activity, green foxtail; conditions: 1 kg/Ha, about fourteen days, read-out: pre-emergence herbicidal activity (% control) SETVI
Method: as §1, §2, §3, §7, §4, §8

[9] = test system: wheat (Triticum aestivum var. Lew); assay: pre-emergence herbicidal activity, wheat; conditions: 1 kg/Ha, about fourteen days, read-out: pre-emergence herbicidal activity (% control) WHT
Method: as §1, §2, §3, §7, §4, §8

[10] = test system: green foxtail (Setaria viridis); assay: post-emergence herbicidal activity, green foxtail; conditions: 1 Kg/Ha, about fourteen days, read-out: post-emergence herbicidal activity (% control) SETVI
Method: as §1, §2, §3, §4, §5, §6

[11] = test system: wheat (Triticum aestivum var. Lew); assay: post-emergence herbicidal activity, wheat; conditions: 1 Kg/Ha, about fourteen days, read-out: post-emergence herbicidal activity (% control) WHT
Method: as §1, §2, §3, §4, §5, §6

[12] = test system: soybean (Glycine max -- var. Winchester); assay: pre-emergence herbicidal activity, soybean; conditions: 1 kg/Ha, about fourteen days, read-out: pre-emergence herbicidal activity (% control) SOY
Method: as §1, §2, §3, §7, §4, §8

[13] = test system: soybean (Glycine max -- var. Winchester); assay: post-emergence herbicidal activity, soybean; conditions: 1 Kg/Ha, about fourteen days, read-out: post-emergence herbicidal activity (% control) SOY
Method: as §1, §2, §3, §4, §5, §6

[14] = test system: field corn (Zea mays var. Pioneer 3732); assay: pre-emergence herbicidal activity, corn; conditions: 1 kg/Ha, about fourteen days, read-out: pre-emergence herbicidal activity (% control) CRN
Method: as §1, §2, §3, §7, §4, §8

[15] = test system: common cocklebur (Xanthium strumarium L.); assay: pre-emergence herbicidal activity, cocklebur; conditions: 1 kg/Ha, about fourteen days, read-out: pre-emergence herbicidal activity (% control) XANPE
Method: as §1, §2, §3, §7, §4, §8

[16] = test system: velvetleaf (Abutilon theophrasti); assay: pre-emergence herbicidal activity, velvetleaf; conditions: 1 kg/Ha, about fourteen days, read-out: pre-emergence herbicidal activity (% control) ABUTH
Method: as §1, §2, §3, §7, §4, §8

[17] = test system: common chickweed (Stellaria media); assay: pre-emergence herbicidal activity, chickweed; conditions: 1 kg/Ha, about fourteen days, read-out: pre-emergence herbicidal activity (% control) STEME
Method: as §1, §2, §3, §7, §4, §8

[18] = test system: common cocklebur (Xanthium strumarium L.); assay: post-emergence herbicidal activity, cocklebur; conditions: 1 Kg/Ha, about fourteen days, read-out: post-emergence herbicidal activity (% control) XANPE
Method: as §1, §2, §3, §4, §5, §6

Measured: activity at 1000 g/ha

COc1ccc(CN2Cc3c(-n4c(=O)cc(C(F)(F)F)n(C)c4=O)ccc(Cl)c3C2=O)cc1 [Compound 25]
80%: [5] | [13]
70%: [3]
95%: [14]
100%: [2] | [8] | [10] | [16] | [17]
75%: [1] | [6]
60%: [9] | [18]
50%: [12]
90%: [4] | [7]
40%: [11] | [15]

COC(=O)CCN1Cc2c(-n3c(=O)cc(C(F)(F)F)n(C)c3=O)ccc(Cl)c2C1=O [Compound 26]
50%: [9]
100%: [2] | [5] | [10] | [12] | [13] | [15] | [16] | [17] | [18]
95%: [7]
80%: [1] | [3] | [4] | [6] | [8] | [14]
70%: [11]

Cn1c(C(F)(F)F)cc(=O)n(-c2ccc(Cl)c3c2CN(CC(F)(F)F)C3=O)c1=O [Compound 28]
100%: [1] | [2] | [3] | [4] | [5] | [6] | [7] | [8] | [9] | [10] | [11] | [12] | [13] | [14] | [15] | [16] | [17] | [18]

Cn1c(C(F)(F)F)cc(=O)n(-c2ccc(Cl)c3c2CN(CC2CC2)C3=O)c1=O [Compound 29]
100%: [1] | [2] | [3] | [4] | [5] | [6] | [7] | [8] | [9] | [10] | [11] | [12] | [13] | [14] | [15] | [16] | [17] | [18]

Cn1c(C(F)(F)F)cc(=O)n(-c2ccc(Cl)c3c2CN(CC#N)C3=O)c1=O [Compound 30]
100%: [1] | [2] | [3] | [4] | [5] | [6] | [8] | [9] | [10] | [12] | [13] | [14] | [15] | [16] | [17] | [18]
95%: [7]
60%: [11]

COCN1Cc2c(-n3c(=O)cc(C(F)(F)F)n(C)c3=O)ccc(Cl)c2C1=O [Compound 31]
100%: [1] | [2] | [3] | [4] | [5] | [6] | [7] | [8] | [9] | [10] | [11] | [12] | [13] | [14] | [15] | [16] | [17] | [18]
